The values below come from PubChem BioAssay (NCI).

The structures appear in SMILES notation.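 Step 1: Grow cells in 96-well plates. Step 2: Expose to compound for 48 hours at 5 concentrations. Step 3: Interpolate endpoints linearly; if unreached, use highest concentration. TGI: total growth inhibition.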

Test systems include NCI-H23 lung; U251 CNS; UACC-257 melanoma; HT29 colon; RPMI-8226 leukemia; NCI/ADR-RES ovarian; DU-145 prostate; HL-60(TB) leukemia; HCT-116 colon; SNB-75 CNS.
What all share (assay): NCI-60 cell line screen, 48 h

As to `S=C(Nc1ccccn1)Nc1ccccc1Cl`, the TGI in the test with NCI-H23 lung, in the test on U251 CNS, in the test on UACC-257 melanoma, in the test on HT29 colon, in the test with RPMI-8226 leukemia and with NCI/ADR-RES ovarian was > 100 µM each time. Further, the TGI with DU-145 prostate was > 100 µM; with HL-60(TB) leukemia it was > 100 µM; in the test on HCT-116 colon it was > 100 µM; in the test with SNB-75 CNS it was > 80.4 µM.

Turning to `CCN(CC)C(=O)N1CN(c2ccccc2)C2(CCN(CCCSc3ccc(F)cc3)CC2)C1=O`, the TGI came to 22.4 µM with NCI-H23 lung; 26.8 µM in the test with U251 CNS; 12.8 µM in the test on UACC-257 melanoma; 13 µM in the test on HT29 colon; 41.6 µM in the test with RPMI-8226 leukemia; 83.4 µM in the test with NCI/ADR-RES ovarian. The TGI with DU-145 prostate was determined as 40.7 µM; in the test on HL-60(TB) leukemia, 19.4 µM; in the test with HCT-116 colon, 12.9 µM; in the test with SNB-75 CNS it was 50.3 µM.

Consider `Clc1ncc(Cl)c(Cl)n1`, for which the TGI in the test on NCI-H23 lung is 42.3 µM; with U251 CNS it was 11.2 µM; in the test with UACC-257 melanoma, 14.3 µM; in the test on HT29 colon, 3.02 µM; in the test on RPMI-8226 leukemia, 6.47 µM; in the test with NCI/ADR-RES ovarian it was 20.5 µM. Besides, the TGI turned out to be 24.1 µM in the test with DU-145 prostate, 2.36 µM in the test with HL-60(TB) leukemia, 8.01 µM in the test with HCT-116 colon and 9.98 µM with SNB-75 CNS.

Regarding `NC(=O)CC(N=C1C(=O)OC(C(O)CO)C1=NC(CC(N)=O)C(=O)O)C(=O)O` (stereo not given), the TGI in the test on NCI-H23 lung, with U251 CNS, in the test with UACC-257 melanoma, in the test with HT29 colon, in the test on RPMI-8226 leukemia and in the test with NCI/ADR-RES ovarian was > 100 µM each time. Also, the TGI with DU-145 prostate, with HL-60(TB) leukemia, in the test on HCT-116 colon and in the test on SNB-75 CNS was > 100 µM each time.

With `COc1ccc(-c2cc(-c3cc(F)c(Cl)cc3Cl)on2)cc1OC`, the TGI in the test on NCI-H23 lung, with U251 CNS, in the test on UACC-257 melanoma, in the test with HT29 colon, with RPMI-8226 leukemia and in the test with NCI/ADR-RES ovarian was > 100 µM throughout. Also, the TGI was > 100 µM with DU-145 prostate, 63.4 µM in the test on HL-60(TB) leukemia, > 100 µM in the test on HCT-116 colon and > 100 µM in the test with SNB-75 CNS.

For `COc1ccc2cc(C(=O)NCCCNC(=O)c3ccc4cc(OC)ccc4c3)ccc2c1`, the TGI in the test on NCI-H23 lung was > 100 µM; in the test on U251 CNS it was > 85.4 µM; with UACC-257 melanoma it was > 100 µM; in the test on HT29 colon, > 100 µM; with RPMI-8226 leukemia it was > 100 µM; in the test with NCI/ADR-RES ovarian, > 100 µM. Further, the TGI is > 100 µM with DU-145 prostate, > 100 µM in the test on HL-60(TB) leukemia, > 100 µM in the test on HCT-116 colon and 50.5 µM in the test with SNB-75 CNS.

Regarding `c1ccc(-c2cc(-c3cccs3)c(-c3cccs3)o2)cc1`, the TGI in the test on NCI-H23 lung, in the test with U251 CNS, in the test on UACC-257 melanoma, in the test on HT29 colon, in the test on RPMI-8226 leukemia and in the test on NCI/ADR-RES ovarian was > 100 µM each time. The TGI with DU-145 prostate, with HL-60(TB) leukemia, in the test on HCT-116 colon and in the test with SNB-75 CNS was > 100 µM each time.

`Cn1c(=O)c2c(nc(Nc3ccc(Cl)cc3)n3c(=O)n(-c4ccccc4)c(=O)n23)n(C)c1=O`: the TGI with NCI-H23 lung, in the test with U251 CNS, with UACC-257 melanoma, with HT29 colon, in the test on RPMI-8226 leukemia and in the test on NCI/ADR-RES ovarian was > 100 µM throughout. The TGI in the test on DU-145 prostate, in the test with HL-60(TB) leukemia, with HCT-116 colon and in the test with SNB-75 CNS was > 100 µM throughout.

Turning to `NC(=O)c1nnsc1NC=O`, the TGI with NCI-H23 lung, in the test on U251 CNS, in the test on UACC-257 melanoma, with HT29 colon, in the test on RPMI-8226 leukemia and with NCI/ADR-RES ovarian was > 100 µM throughout. Moreover, the TGI in the test with DU-145 prostate, with HL-60(TB) leukemia, in the test on HCT-116 colon and in the test on SNB-75 CNS was > 100 µM in each case.

Regarding `c1ccc2c(c1)CC1COc3ccccc3C1O2` (stereo not given), the TGI in the test with NCI-H23 lung, in the test on U251 CNS, with UACC-257 melanoma, with HT29 colon, in the test on RPMI-8226 leukemia and in the test on NCI/ADR-RES ovarian was > 100 µM in each case. Also, the TGI in the test with DU-145 prostate, in the test on HL-60(TB) leukemia, in the test with HCT-116 colon and in the test on SNB-75 CNS was > 100 µM throughout.

As to `Cc1nc2ccccc2n1Cc1nnc(N)o1`, the TGI in the test with NCI-H23 lung, with U251 CNS, in the test with UACC-257 melanoma, in the test on HT29 colon, with RPMI-8226 leukemia and with NCI/ADR-RES ovarian was > 100 µM throughout. The TGI with DU-145 prostate, in the test on HL-60(TB) leukemia, in the test with HCT-116 colon and in the test with SNB-75 CNS was > 100 µM throughout.

On to `CCCCCCCCCCCCCCCCCCOCC(COP(=O)([O-])OCC[N+](C)(C)C)OC` (stereo not given), for which the TGI in the test with NCI-H23 lung was 61.6 µM; in the test with U251 CNS, 42.8 µM; with UACC-257 melanoma it was 30.5 µM; with HT29 colon it was 23.5 µM; in the test on RPMI-8226 leukemia, 45.7 µM; in the test on NCI/ADR-RES ovarian, 64.1 µM. Also, the TGI is > 100 µM in the test with DU-145 prostate, 13.6 µM in the test with HL-60(TB) leukemia, 43.5 µM with HCT-116 colon and 37.2 µM in the test on SNB-75 CNS.

For the molecule `CC1(C)CCC(=O)NC1CC(=O)CC1NC(=O)CCC1(C)C` (stereo not given), the TGI in the test with NCI-H23 lung, in the test with U251 CNS, with UACC-257 melanoma, in the test with HT29 colon, in the test with RPMI-8226 leukemia and with NCI/ADR-RES ovarian was > 100 µM throughout. Moreover, the TGI in the test on DU-145 prostate, in the test on HL-60(TB) leukemia, in the test with HCT-116 colon and with SNB-75 CNS was > 100 µM in each case.
